Data as given in the supplement of paper PMC12592484.

Columns and labels:
Test in all cases: drug sensitivity score (DSS2, normalised partial AUC of dose-response, 72 h CellTiter-Glo viability) (DSS (dimensionless)); higher = more sensitive (stronger growth inhibition / cytotoxicity); extreme values may be limits of the assay
CAF#2 = test system: CAF#2 (primary prostate cancer-associated fibroblasts of iCAF-like type)
Procedure, shortened: (§1)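 In BREEZE, the drug sensitivity score was derived as a partial area under a fitted logistic dose–response curve over the log of that curve's upper asymptote; a higher score marks a more sensitive response. The input came from low-passage primary prostate cancer-associated fibroblasts, PF179T, WPMY-1, LNCaP and 22Rv1 cells, each seeded into 384-well plates with compounds pre-dispensed at five doses spanning a 10,000-fold range. CellTiter-Glo 2.0 luminescence after 72 h gave viability, which was normalized to vehicle and positive-control wells.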

PF179T = test system: PF179T
Procedure, shortened: as §1

WPMY-1 = test system: WPMY-1
Procedure, shortened: as §1

LNCAP = test system: LNCAP
Procedure, shortened: as §1

22Rv1 = test system: 22Rv1
Procedure, shortened: as §1

CAF#6 = test system: CAF#6 (primary prostate cancer-associated fibroblasts of iCAF-like type)
Procedure, shortened: as §1

CAF#4 = test system: CAF#4 (primary prostate cancer-associated fibroblasts of iCAF-like type)
Procedure, shortened: as §1

CAF#7 = test system: CAF#7 (primary prostate cancer-associated fibroblasts of myCAF-like type)
Procedure, shortened: as §1

CAF#3 = test system: CAF#3 (primary prostate cancer-associated fibroblasts of myCAF-like type)
Procedure, shortened: as §1

CAF#1 = test system: CAF#1 (primary prostate cancer-associated fibroblasts of myCAF-like type)
Procedure, shortened: as §1

CAF#5 = test system: CAF#5 (primary prostate cancer-associated fibroblasts of myCAF-like type)
Procedure, shortened: as §1

In the case of S=c1[nH]cnc2nc[nH]c12 [Mercaptopurine] (tested concentration range 1-10000 nM), the drug sensitivity score (CAF#2) is reported as 0.1, the drug sensitivity score (PF179T) is reported as 0 and the drug sensitivity score (WPMY-1) is reported as 9. The drug sensitivity score (LNCAP) was 0.2, the drug sensitivity score (22Rv1) was 2.7 and the drug sensitivity score (CAF#6) was 1.4. The drug sensitivity score (CAF#4) was 2.8, the drug sensitivity score (CAF#7) was 0.1 and the drug sensitivity score (CAF#3) was 0.1. For the same compound, the drug sensitivity score (CAF#1) was 0 and the drug sensitivity score (CAF#5) was 0.

For Cc1ccc(C(=O)Nc2ccc(Oc3cc4cnn(C)c4cc3-c3cn[nH]c3)c(F)c2)c(=O)n1-c1ccc(F)cc1 [Merestinib] (tested concentration range 0.1-1000 nM), the drug sensitivity score (CAF#2) was 5.6, the drug sensitivity score (PF179T) was 5.3 and the drug sensitivity score (WPMY-1) was 4.3. The drug sensitivity score (LNCAP) was 0, the drug sensitivity score (22Rv1) was 0 and the drug sensitivity score (CAF#6) was 3.5. For the same compound, the drug sensitivity score (CAF#4) was 4.4, the drug sensitivity score (CAF#7) was 3.9 and the drug sensitivity score (CAF#3) was 3. For the same compound, the drug sensitivity score (CAF#1) was 3 and the drug sensitivity score (CAF#5) was 3.8.

CN(C)C(=N)NC(=N)N [Metformin] (tested concentration range 10-100000 nM) showed a drug sensitivity score (CAF#2) of 0, a drug sensitivity score (PF179T) of 0 and a drug sensitivity score (WPMY-1) of 0. For the same compound, the drug sensitivity score (LNCAP) was 0, the drug sensitivity score (22Rv1) was 0 and the drug sensitivity score (CAF#6) was 0. It also gave a drug sensitivity score (CAF#4) of 0, a drug sensitivity score (CAF#7) of 0 and a drug sensitivity score (CAF#3) of 0. It also gave a drug sensitivity score (CAF#1) of 0 and a drug sensitivity score (CAF#5) of 0.

In the case of CN(Cc1cnc2nc(N)nc(N)c2n1)c1ccc(C(=O)N[C@@H](CCC(=O)O)C(=O)O)cc1 [Methotrexate] (tested concentration range 0.5-5000 nM), the drug sensitivity score (CAF#2) is reported as 0, the drug sensitivity score (PF179T) is reported as 0 and the drug sensitivity score (WPMY-1) is reported as 17.4. For the same compound, the drug sensitivity score (LNCAP) was 16.6, the drug sensitivity score (22Rv1) was 0 and the drug sensitivity score (CAF#6) was 0.8. The drug sensitivity score (CAF#4) was 1.1, the drug sensitivity score (CAF#7) was 0 and the drug sensitivity score (CAF#3) was 0. It also gave a drug sensitivity score (CAF#1) of 0 and a drug sensitivity score (CAF#5) of 0.

Compound C[C@H]1C[C@@H]2[C@H]([C@@H](O)C[C@@]3(C)[C@H]2CC[C@]3(O)C(=O)CO)[C@@]2(C)C=CC(=O)C=C12 [Methylprednisolone] (tested concentration range 1-10000 nM) has a drug sensitivity score (CAF#2) of 0, a drug sensitivity score (PF179T) of 0 and a drug sensitivity score (WPMY-1) of 0. The drug sensitivity score (LNCAP) was 0, the drug sensitivity score (22Rv1) was 0 and the drug sensitivity score (CAF#6) was 0. It also gave a drug sensitivity score (CAF#4) of 0, a drug sensitivity score (CAF#7) of 1.2 and a drug sensitivity score (CAF#3) of 1.9. For the same compound, the drug sensitivity score (CAF#1) was 0 and the drug sensitivity score (CAF#5) was 0.

CO[C@@H]1[C@H](N(C)C(=O)c2ccccc2)C[C@H]2O[C@]1(C)n1c3ccccc3c3c4c(c5c6ccccc6n2c5c31)C(=O)NC4 [Midostaurin] (tested concentration range 1-10000 nM) showed a drug sensitivity score (CAF#2) of 20.7, a drug sensitivity score (PF179T) of 18.4 and a drug sensitivity score (WPMY-1) of 11.9. The drug sensitivity score (LNCAP) was 4.2, the drug sensitivity score (22Rv1) was 0 and the drug sensitivity score (CAF#6) was 18.3. For the same compound, the drug sensitivity score (CAF#4) was 16.1, the drug sensitivity score (CAF#7) was 19.8 and the drug sensitivity score (CAF#3) was 12.5. The drug sensitivity score (CAF#1) was 18.7 and the drug sensitivity score (CAF#5) was 16.5.

Work on CO[C@@]12[C@H](COC(N)=O)C3=C(C(=O)C(C)=C(N)C3=O)N1C[C@@H]1N[C@@H]12 [Mitomycin C] (tested concentration range 1-10000 nM) yielded a drug sensitivity score (CAF#2) of 0.1, a drug sensitivity score (PF179T) of 0 and a drug sensitivity score (WPMY-1) of 0. It also gave a drug sensitivity score (LNCAP) of 0.7, a drug sensitivity score (22Rv1) of 0 and a drug sensitivity score (CAF#6) of 0. The drug sensitivity score (CAF#4) was 0, the drug sensitivity score (CAF#7) was 0 and the drug sensitivity score (CAF#3) was 0. It also gave a drug sensitivity score (CAF#1) of 0 and a drug sensitivity score (CAF#5) of 0.

Clc1ccc(C(c2ccccc2Cl)C(Cl)Cl)cc1 (stereo not drawn) [Mitotane] (tested concentration range 1-10000 nM) was tested, and the drug sensitivity score (CAF#2) was 0, the drug sensitivity score (PF179T) was 0 and the drug sensitivity score (WPMY-1) was 0. For the same compound, the drug sensitivity score (LNCAP) was 1.8, the drug sensitivity score (22Rv1) was 0 and the drug sensitivity score (CAF#6) was 0. The drug sensitivity score (CAF#4) was 0, the drug sensitivity score (CAF#7) was 0 and the drug sensitivity score (CAF#3) was 0.2. It also gave a drug sensitivity score (CAF#1) of 0 and a drug sensitivity score (CAF#5) of 0.

In the case of O=C1c2c(O)ccc(O)c2C(=O)c2c(NCCNCCO)ccc(NCCNCCO)c21 [Mitoxantrone] (tested concentration range 0.1-1000 nM), the drug sensitivity score (CAF#2) is reported as 8.9, the drug sensitivity score (PF179T) is reported as 9.9 and the drug sensitivity score (WPMY-1) is reported as 15. It also gave a drug sensitivity score (LNCAP) of 14.7, a drug sensitivity score (22Rv1) of 10.7 and a drug sensitivity score (CAF#6) of 4. For the same compound, the drug sensitivity score (CAF#4) was 5, the drug sensitivity score (CAF#7) was 7.2 and the drug sensitivity score (CAF#3) was 1.2. The drug sensitivity score (CAF#1) was 3.7 and the drug sensitivity score (CAF#5) was 6.6.

CCS(=O)(=O)Nc1ccc(Oc2ccc(F)cc2F)c(-c2cn(C)c(=O)c3[nH]ccc23)c1 [Mivebresib] (tested concentration range 1-10000 nM) was tested, and the drug sensitivity score (CAF#2) was 19.7, the drug sensitivity score (PF179T) was 11.1 and the drug sensitivity score (WPMY-1) was 22.9. It also gave a drug sensitivity score (LNCAP) of 30.7, a drug sensitivity score (22Rv1) of 23.5 and a drug sensitivity score (CAF#6) of 13.3. For the same compound, the drug sensitivity score (CAF#4) was 10.7, the drug sensitivity score (CAF#7) was 11.4 and the drug sensitivity score (CAF#3) was 19.3. The drug sensitivity score (CAF#1) was 19 and the drug sensitivity score (CAF#5) was 15.5.

Nc1ccccc1NC(=O)c1ccc(CNc2nccc(-c3cccnc3)n2)cc1 [Mocetinostat] (tested concentration range 1-10000 nM) was tested, and the drug sensitivity score (CAF#2) was 11.3, the drug sensitivity score (PF179T) was 13.5 and the drug sensitivity score (WPMY-1) was 12. For the same compound, the drug sensitivity score (LNCAP) was 13.3, the drug sensitivity score (22Rv1) was 14.1 and the drug sensitivity score (CAF#6) was 7.7. For the same compound, the drug sensitivity score (CAF#4) was 8.4, the drug sensitivity score (CAF#7) was 9.4 and the drug sensitivity score (CAF#3) was 9.2. For the same compound, the drug sensitivity score (CAF#1) was 9.4 and the drug sensitivity score (CAF#5) was 11.8.

For CCNC(=O)C[C@@H]1N=C(c2ccc(Cl)cc2)c2cc(OC)ccc2-n2c(C)nnc21 [Molibresib] (tested concentration range 1-10000 nM), the drug sensitivity score (CAF#2) was 5.1, the drug sensitivity score (PF179T) was 2.9 and the drug sensitivity score (WPMY-1) was 6.5. It also gave a drug sensitivity score (LNCAP) of 12.3, a drug sensitivity score (22Rv1) of 8.9 and a drug sensitivity score (CAF#6) of 2.9. It also gave a drug sensitivity score (CAF#4) of 3.8, a drug sensitivity score (CAF#7) of 2.7 and a drug sensitivity score (CAF#3) of 6.6. For the same compound, the drug sensitivity score (CAF#1) was 4.6 and the drug sensitivity score (CAF#5) was 2.9.

N#CCNC(=O)c1ccc(-c2ccnc(Nc3ccc(N4CCOCC4)cc3)n2)cc1 [Momelotinib] (tested concentration range 1-10000 nM) gave a drug sensitivity score (CAF#2) of 4.6, a drug sensitivity score (PF179T) of 2.3 and a drug sensitivity score (WPMY-1) of 6.1. For the same compound, the drug sensitivity score (LNCAP) was 5, the drug sensitivity score (22Rv1) was 0.9 and the drug sensitivity score (CAF#6) was 2.8. It also gave a drug sensitivity score (CAF#4) of 2.8, a drug sensitivity score (CAF#7) of 3.1 and a drug sensitivity score (CAF#3) of 4.4. The drug sensitivity score (CAF#1) was 3.9 and the drug sensitivity score (CAF#5) was 4.1.
